Test results reported in US20060147397A1, “Composition for preparation for external use on skin and method of using the same” (Kose Corporation, priority 2002, published 2006).

What was measured:
[1] = test system: Human neonatal fibroblast NB1RGB; experiment: Cell activation test based on cell culture (cell proliferation ratio)
Experimental: Human neonatal fibroblast NB1RGB was used. An appropriate quantity of medium was placed in a 24-well plate, the fibroblast NB1RGB was seeded therein and allowed to stand at 37 ° C. under a carbon dioxide concentration of 5 vol %. Next day, a sample preparation solution was added and mixed therewith so as to adjust the final concentrations of the Cistus ladaniferus L. extract obtained in Example 1, and labdenic acids and methyl esters and ethyl esters thereof obtained in Example 2 to 0 (reference), 5 and 10 μg/mL, and of Panax ginseng extract (product of Maruzen Pharmaceuticals Co., Ltd.), which is a known cell activator, to 0 and 100 μg/mL. The medium was exchanged on the fourth day of culture, and the sample preparation solution was added again. The medium was removed next day, the cells were washed using a phosphate buffer and collected, and evaluated in terms of cell proliferation rate based on comparison of the number of fibroblast NB1RGB cells grown in the individual sample preparation solutions with that of the reference. […]
The number of cells grown in each sample preparation solution was compared with the number of cells of the reference, and cell activation effect was evaluated using cell proliferation ratio as an index. The number of cells was counted using a blood cell counter plate.
Human neonatal fibroblast NB1RGB was used. An appropriate quantity of medium was placed in a 24-well plate, the fibroblast NB1RGB was seeded therein and allowed to stand at 37 ° C. under a carbon dioxide concentration of 5 vol %. Next day, a sample preparation solution was added and mixed therewith so as to adjust the final concentrations of the Cistus ladaniferus L. extract obtained in Example 1, and labdenic acids and methyl esters and ethyl esters thereof obtained in Example 2 to 0 (reference), 5 and 10 μg/mL, and of cactus extract, which is a known cell activator, to 0 and 100 μg/mL. The medium was exchanged on the fourth day of culture, and the sample preparation solution was added again. The medium was removed next day, the cells were washed using a phosphate buffer and collected, and evaluated in terms of cell proliferation rate based on comparison of the number of fibroblast NB1RGB cells grown in the individual sample preparation solutions with that of the reference.

[2] = test system: Murine cultured B16 melanoma cells; experiment: Melanin generation/formation suppression test based on cell culture (degree of whiteness); set-up: key: ++: distinctively stronger whiteness over the reference; +: apparently stronger whiteness over the reference; ±: slightly stronger whiteness over the reference; −: remained unchanged
Experimental: Murine cultured B16 melanoma cells were used. An appropriate quantity of a 10% FBS-containing MEM medium was placed in two 6-well plates, the B16 melanoma cells were seeded therein and allowed to stand at 37° C. under a carbon dioxide concentration of 5 vol %. Next day, a sample preparation solution was added and mixed therewith so as to adjust the final concentrations of the Cistus ladaniferus L. extract obtained in Example 1, and labdenic acids and methyl esters and ethyl esters thereof obtained in Example 2 to 0 (reference), 5 and 10 μg/mL, and of lily extract (product of Maruzen Pharmaceuticals Co., Ltd.), which is a known whitening agent, to 0 and 100 μg/mL. The medium was exchanged on the fifth day of culture, and the sample preparation solution was added again. The medium was removed next day, the cells were collected from one plate after washing them using a phosphate buffer (pH7), and degree of whitening of the cultured B16 melanoma cells was evaluated according to the criteria shown below. […]
• ++: distinctively stronger whiteness over the reference; • +: apparently stronger whiteness over the reference; • ±: slightly stronger whiteness over the reference; and • −: remained unchanged.
Murine cultured B16 melanoma cells were used. An appropriate quantity of a 10% FBS-containing MEM medium was placed in two 6-well plates, the B16 melanoma cells were seeded therein and allowed to stand at 37° C. under a carbon dioxide concentration of 5 vol %. Next day, a sample preparation solution was added and mixed therewith so as to adjust the final concentrations of the Cistus ladaniferus L. extract obtained in Example 1, and labdenic acids and methyl esters and ethyl esters thereof obtained in Example 2 to 0 (reference), 5 and 10 μg/mL, and of Glycyrrhiza glabra extract (product of Maruzen Pharmaceuticals Co., Ltd.), which is a known whitening agent, to 0 and 100 μg/mL. The medium was exchanged on the fifth day of culture, and the sample preparation solution was added again. The medium was removed next day, the cells were collected from one plate after washing them using a phosphate buffer (pH7), and degree of whitening of the cultured B16 melanoma cells was evaluated according to the criteria shown below.

[3] = test system: Murine cultured B16 melanoma cells; experiment: as above; set-up: key: ++: distinctively stronger whiteness over the reference; +: apparently stronger whiteness over the reference; ±: slightly stronger whiteness over the reference; −: remained unchanged; remark: listed apart in the source
[4] = test system: Murine cultured B16 melanoma cells; experiment: Cell survival rate test based on cell culture (crystal violet); conditions: mouse, 5 days, 10 μg/mL
Experimental: Murine cultured B16 melanoma cells were used. An appropriate quantity of a 10% FBS-containing MEM medium was placed in two 6-well plates, the B16 melanoma cells were seeded therein and allowed to stand at 37° C. under a carbon dioxide concentration of 5 vol %. Next day, a sample preparation solution was added and mixed therewith so as to adjust the final concentrations of the Cistus ladaniferus L. extract obtained in Example 1, and labdenic acids and methyl esters and ethyl esters thereof obtained in Example 2 to 0 (reference), 5 and 10 μg/mL, and of lily extract (product of Maruzen Pharmaceuticals Co., Ltd.), which is a known whitening agent, to 0 and 100 μg/mL. The medium was exchanged on the fifth day of culture, and the sample preparation solution was added again. The medium was removed next day, the cells were collected from one plate after washing them using a phosphate buffer (pH7), and degree of whitening of the cultured B16 melanoma cells was evaluated according to the criteria shown below.
On the other plate, the cells were fixed with formalin, and dyed by adding an 1% crystal violet solution. Cell survival rates for the individual sample concentrations were measured using a monocellator (product of Olympus Corporation).
Murine cultured B16 melanoma cells were used. An appropriate quantity of a 10% FBS-containing MEM medium was placed in two 6-well plates, the B16 melanoma cells were seeded therein and allowed to stand at 37° C. under a carbon dioxide concentration of 5 vol %. […] The medium was removed next day, the cells were collected from one plate after washing them using a phosphate buffer (pH7), and degree of whitening of the cultured B16 melanoma cells was evaluated according to the criteria shown below.

[5] = final concentration 5 μg/mL + Panax ginseng extract 100 μg/mL
[6] = final concentration 5 μg/mL, additional concentration of cactus extract 100 μg/mL, vs reference
[7] = final concentration 10 μg/mL, Panax ginseng extract 0 μg/mL
[8] = final concentration 10 μg/mL, cactus extract 0 μg/mL, vs reference
[9] = final concentration 5 μg/mL + lily extract 100 μg/mL
[10] = final concentration 10 μg/mL, lily extract 0 μg/mL
[11] = final concentration 5 μg/mL + Glycyrrhiza glabra extract 100 μg/mL
[12] = final concentration 10 μg/mL, Glycyrrhiza glabra extract 0 μg/mL

Compound	Cell-activation rate [1, 5] [%]	Cell-activation rate [1, 6] [%]	Cell-activation rate [1, 7] [%]	Cell-activation rate [1, 8] [%]	Degree of whiteness [2, 9]	Degree of whiteness [2, 10]	Degree of whiteness [3, 11]	Degree of whiteness [3, 12]	Cell survival rate [4] [%]
CC1=C(CCC(C)CC(=O)O)C2(C)CCCC(C)(C)C2CC1 (stereo not drawn) [Compound 1, labd-8-en-15-oic acid]	329	310	128	128	++	+	++	+	94
CC1=CCC2C(C)(C)CCCC2(C)C1CCC(C)CC(=O)O (stereo not drawn) [Compound 4, labd-7-en-15-oic acid]	322	315	130	130	++	+	++	+	93
C=C1CCC2C(C)(C)CCCC2(C)C1CCC(C)CC(=O)O (stereo not drawn) [Compound 7, labd-8(17)-en-15-oic acid]	333	170	135	135	++	+	++	+	98
